Data published in US10391095B2, “DNA-PK inhibitors” (Vertex Pharmaceuticals Incorporated, priority 2012, dated 2019).

molecular target: DNA-PK (Homo sapiens, UniProt P78527); test: DNA-PK inhibition assay (radiometric, 33P-ATP); format: biochemical; conditions: 100 μM ATP, competitive tight-binding fit
How it was run: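 33P transfer from 100 µM ATP to a DNA-PK peptide (0.8 mg/mL) is measured after 45 min, using about 6 nM enzyme activated by 10 µg/mL sheared dsDNA (HEPES pH 7.5, MgCl2, DTT). Filter-bound counts fitted to a competitive tight-binding inhibition model give Ki.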

Ki [nM] | SMILES
< 30 | Cc1ccc(-c2cc(NC[C@@H](C)c3cccc4c(CO)ccnc34)ncn2)cn1 [Compound 568]
< 30 | CCc1ccc(-c2cc(NC[C@@H](C)c3cccc4c(C(=O)NC)ccnc34)ncn2)cn1 [Compound 789]
< 30 | CNC(=O)c1c(F)cnc2c([C@H](C)CNc3cc(-c4cnnc(C)c4)ncn3)cccc12 [Compound 968]
< 30 | CNC(=O)c1ccc(C(C)CNc2cc(-c3cn(C4COC4)c4ncc(F)cc34)ncn2)c(OC)c1 (centres unmarked) [Compound 449]
< 30 | CCc1ncc(-c2cc(NC[C@@H](C)c3ccc(F)c4c(C(=O)NC)ccnc34)ncn2)cn1 [Compound 830]
< 30 | CNC(=O)c1ccnc2c([C@H](C)CNc3cc(-c4ccc(C(C)=O)cc4)ncn3)cccc12 [Compound 590]
< 30 | Cc1ncc(-c2cc(NC[C@@H](C)c3cccc4cc(F)cnc34)ncn2)cn1 [Compound 667]
< 30 | CNC(=O)c1ccc([C@H](C)CNc2cc(-c3ccc(NCC4CC4)nc3)ncn2)c(OC)c1 [Compound 364]
< 30 | CCOc1ccc(-c2cc(NCC(C)c3ccc(C(=O)NC)cc3OC)ncn2)cn1 (centres unmarked) [Compound 322]
< 30 | CNCCNc1ccc(-c2cc(NC[C@@H](C)c3cccc4c(C(=O)NC)ccnc34)ncn2)cn1 [Compound 584]
< 30 | Cc1ncc(-c2cc(NC[C@@H](C)c3cccc4nccnc34)ncn2)cn1 [Compound 662]
< 30 | COc1ccccc1[C@H](C)CNc1cc(-c2ccc3ncccc3c2)ncn1 [Compound 80]
< 30 | Cc1ccc(-c2cc(NCC(C)c3ccnc4c3OCCN4)ncn2)cn1 (centres unmarked) [Compound 648]
< 30 | CNC(=O)c1ccnc2c([C@H](C)CNc3cc(-c4cnc(C#N)c(OC)c4)ncn3)ccc(F)c12 [Compound 923]
< 30 | COc1ccccc1[C@H](C)CNc1cc(-c2ccc(Nc3nn[nH]n3)nc2)ncn1 [Compound 203]
< 30 | [2H]C([2H])([2H])NC(=O)c1ccnc2c([C@H](C)CNc3cc(-c4cnc(C)nc4)ncn3)cccc12 [Compound 654]
< 30 | CNC(=O)c1c(F)cnc2c([C@H](C)CNc3cc(-c4cnc(C(C)(C)OC)nc4)ncn3)cccc12 [Compound 930]
< 30 | CNC(=O)c1ccnc2c([C@H](C)CNc3cc(-c4ccc(OC(C)C)nc4)ncn3)cccc12 [Compound 959]
< 30 | CNC(=O)c1ccnc2c([C@H](C)CNc3cc(-c4ccc(OC(C)(C)C)cc4)ncn3)cccc12 [Compound 755]
< 30 | CNC(=O)c1ccnc2c([C@H](C)CNc3cc(-c4ccc(N5CCN(CC(F)F)CC5)nc4)ncn3)cccc12 [Compound 756]
< 30 | CNC(=O)c1ccc([C@H](C)CNc2cc(-c3ccc(CN)cc3)ncn2)c(OC)c1 [Compound 351]
< 30 | CNC(=O)c1ccnc2c([C@H](C)CNc3cc(N4CCn5c(C6CCN(C)CC6)cnc5C4)ncn3)cccc12 [Compound 826]
< 30 | CNC(=O)c1ccc([C@H](C)CNc2cc(-c3ccc(N4CCC4)nc3)ncn2)c(OC)c1 [Compound 395]
< 30 | CNc1ncc(-c2cc(NC[C@@H](C)c3cc(C)nc4c3OCC4)ncn2)cn1 [Compound 574]
< 30 | CNC(=O)c1ccc([C@H](C)CNc2cc(-c3ccc4c(c3)NC(=O)C4)ncn2)c(OC)c1 [Compound 311]

Ki [nM] | SMILES
< 30 | CC(=O)N1CCOc2c([C@H](C)CNc3cc(-c4cnc(C)nc4)ncn3)cccc21 [Compound 627]
< 30 | CCOC(=O)c1cn2c(n1)CN(c1cc(NC[C@@H](C)c3cccc4c(C(=O)NC)ccnc34)ncn1)CC2 [Compound 794]
< 30 | CNC(=O)c1ccnc2c([C@H](C)CNc3cc(-c4ccc(C#N)cc4)ncn3)cccc12 [Compound 683]
< 30 | COc1cc(C(=O)NCC(F)(F)F)ccc1C(C)CNc1cc(-c2ccc(C)nc2)ncn1 (centres unmarked) [Compound 218]
< 30 | CNC(=O)c1ccc([C@H](C)CNc2cc(-c3ccc4scnc4c3)ncn2)c(OC)c1 [Compound 316]
< 30 | CNC(=O)c1ccnc2c([C@H](C)CNc3cc(-c4ccc(N(C)CC5CC5)nc4)ncn3)cccc12 [Compound 625]
< 30 | CNC(=O)c1ccnc2c([C@H](C)CNc3cc(-c4ccc(N5C[C@@H]6CCN(C)[C@@H]6C5)nc4)ncn3)cccc12 [Compound 720]
< 30 | COc1sccc1C(C)CNc1cc(-c2ccc(N3CCN(C)CC3)nc2)ncn1 (centres unmarked) [Compound 265]
< 30 | Cc1ccc(-c2cc(NC[C@@H](C)c3cccc4c(C(=O)NCC(F)(F)F)ccnc34)ncn2)cn1 [Compound 546]
< 30 | COc1cc(C(=O)NC2CC2)ccc1C(C)CNc1cc(-c2ccc(C)nc2)ncn1 (centres unmarked) [Compound 158]
< 30 | CNC(=O)c1ccnc2c([C@H](C)CNc3cc(-c4ccc5c(c4)CCNC5)ncn3)cccc12 [Compound 802]
< 30 | CNC(=O)c1ccnc2c([C@H](C)CNc3cc(-c4cnc(OC)nc4)ncn3)cccc12 [Compound 606]
< 30 | CNC(=O)c1ccnc2c([C@H](C)CNc3cc(-c4ccnc(N5CCC(O)CC5)c4)ncn3)cccc12 [Compound 819]
< 30 | Cc1ccc(-c2cc(NCC(C)c3cccc4nc(C)c(C)nc34)ncn2)cn1 (centres unmarked) [Compound 434]
< 30 | CCC(CO)Nc1ccc(-c2cc(NC[C@@H](C)c3cccc4c(C(=O)NC)ccnc34)ncn2)cn1 (some centres unmarked) [Compound 724]
< 30 | CNC(=O)c1ccnc2c([C@H](C)CNc3cc(-c4ccc(N5CCN(C(C)=O)CC5)nc4)ncn3)cccc12 [Compound 614]
< 30 | CNC(=O)c1ccnc2c([C@H](C)CNc3cc(-c4ccnc(CO)c4)ncn3)cccc12 [Compound 890]
< 30 | C[C@H](CNc1cc(-c2cnc(F)c(N)c2)ncn1)c1ccnc2c1OCCO2 [Compound 554]
< 30 | CNC(=O)c1ccnc2c([C@H](C)CNc3cc(-c4cnc(N)c(CO)c4)ncn3)cccc12 [Compound 970]
< 30 | CNC(=O)c1ccc([C@H](C)CNc2cc(-c3ccc(NC(C)CO)nc3)ncn2)c(OC)c1 (single isomer, unassigned) [Compound 357]
< 30 | CNC(=O)c1ccnc2c([C@H](C)CNc3cc(-c4ccc(C)cc4F)ncn3)cccc12 [Compound 805]
< 30 | CNC(=O)c1ccc(C(C)CNc2cc(-c3cnc4c(cnn4C(C)(C)C(=O)O)c3)ncn2)c(OC)c1 (centres unmarked) [Compound 284]
< 30 | CNC(=O)c1ccnc2c([C@H](C)CNc3cc(-c4ccc(N(C)C5CCS(=O)(=O)C5)nc4)ncn3)cccc12 (some centres unmarked) [Compound 711]
< 30 | CNC(=O)c1ccc([C@H](C)CNc2cc(-c3ccc(N(C)C(C)C4CC4)nc3)ncn2)c(OC)c1 (some centres unmarked) [Compound 341]
< 30 | COc1ccccc1[C@H](C)CNc1cc(-c2ccc(NCC#N)nc2)ncn1 [Compound 202]

Ki [nM] | SMILES
< 30 | CNC(=O)c1ccnc2c([C@H](C)CNc3cc(-c4cnc(C5CCOCC5)nc4)ncn3)cccc12 [Compound 831]
< 30 | CNC(=O)c1ccnc2c([C@H](C)CNc3cc(-c4cnc(OC)c(F)c4)ncn3)cccc12 [Compound 881]
< 30 | COc1cc(C(=O)NOCc2ccccc2)ccc1C(C)CNc1cc(-c2ccc(C)nc2)ncn1 (centres unmarked) [Compound 222]
< 30 | CNC(=O)c1ccnc2c([C@H](C)CNc3cc(-c4ccc(CN5CCN(C)CC5)nc4)ncn3)cccc12 [Compound 670]
< 30 | C[C@H](CNc1cc(-c2cnc3c(cnn3C3CNC3)c2)ncn1)c1ccnc2c1OCCO2 [Compound 527]
< 30 | CNC(=O)c1ccc([C@H](C)CNc2cc(-c3ccc(C(=O)N4CCN(C)CC4)cc3)ncn2)c(OC)c1 [Compound 309]
< 30 | CNC(=O)c1ccnc2c([C@H](C)CNc3cc(-c4cnc(C)nc4)ncn3)cc(F)cc12 [Compound 637]
< 30 | CCc1ncc(-c2cc(NC[C@@H](C)c3cccc4c(C(=O)NC)ccnc34)ncn2)cn1 [Compound 829]
< 30 | CCOc1cc(-c2cc(NC[C@@H](C)c3cccc4c(C(=O)NC)c(F)cnc34)ncn2)cnc1OCC [Compound 897]
< 30 | CNC(=O)c1ccc(C(C)CNc2cc(-c3ccc(OC4COC4)nc3)ncn2)c(OC)c1 (centres unmarked) [Compound 307]
< 30 | CNC(=O)c1ccnc2c([C@H](C)CNc3cc(-c4cnc(C(C)C)nc4)ncn3)cccc12 [Compound 849]
< 30 | COc1cc(N)ncc1C(C)CNc1cc(-c2ccc(N3CCN(C(C)=O)CC3)nc2)ncn1 (centres unmarked) [Compound 345]
< 30 | Cc1cc([C@H](C)CNc2cc(-c3ccc4ncccc4c3)ncn2)c2c(n1)CCO2 [Compound 508]
< 30 | Cc1ccc(-c2cc(NCC(C)c3ccnc4c3OCC4)ncn2)cn1 (centres unmarked) [Compound 289]
< 30 | COc1cscc1C(C)CNc1cc(-c2cnc3c(cnn3C3CCN(C)CC3)c2)ncn1 (centres unmarked) [Compound 228]
< 30 | CNC(=O)c1ccnc2c([C@H](C)CNc3cc(-c4cnc(N)c(C)c4)ncn3)cccc12 [Compound 948]
< 30 | CNC(=O)c1ccnc2c([C@H](C)CNc3cc(-c4ccc(NC(C)=O)cc4)ncn3)cccc12 [Compound 749]
< 30 | CCNc1ncc(-c2cc(NC[C@@H](C)c3cccc4c(C(=O)NC)ccnc34)ncn2)cn1 [Compound 942]
< 30 | CCOc1cc(F)ccc1[C@H](C)CNc1cc(-c2ccc(N3CCN(C)CC3)nc2)ncn1 [Compound 120]
< 30 | CNC(=O)c1ccnc2c([C@H](C)CNc3cc(-c4cnc(N5CCCC(O)C5)nc4)ncn3)cccc12 (some centres unmarked) [Compound 728]
< 30 | COc1ccccc1CCNc1cc(-c2cnc3c(ccn3C(C)C)c2)ncn1 [Compound 37]
< 30 | CCOC(=O)c1ccc(-c2cc(NC[C@@H](C)c3cccc4c(C(=O)NC)ccnc34)ncn2)o1 [Compound 795]
< 30 | CNC(=O)c1ccnc2c([C@H](C)CNc3cc(-c4cccnc4)ncn3)cccc12 [Compound 612]
< 30 | CNC(=O)c1ccc(C(C)CNc2cc(-c3cnc4[nH]ncc4c3)ncn2)c(OC)c1 (centres unmarked) [Compound 167]
